{
  "source": "patent US5132293A",
  "about": "“Enzymic alteration of hair growth” (priority 1991, dated 1992)",
  "key": {"[1]": {"test_system": "brain 4-aminobutyric acid levels", "details": "transformation catalyzed by mitochondrial monoamine oxidase; cited from earlier work"}, "[2]": {"test_system": "sebum excretion", "details": "topical, cited from earlier work"}, "[3]": {"test_system": "hair growth", "details": "intact males; Table 3, Group VI vs. Group X; cited from earlier work"}, "[4]": {"test_system": "sebaceous glands", "details": "cited from earlier work"}, "[5]": {"test_system": "flank organ hair", "assay": "Hamster flank organ hair growth inhibition by topical inhibitor (hair mass, treated organ vs vehicle-treated organ)", "format": "in vivo, male intact Golden Syrian hamsters", "details": "for Flank Organ Hair Mass, Treated: ± SE; for Hair Growth Inhibition: percent decrease vs vehicle-treated organ", "description": "A series of compositions was prepared each containing a given concentration of specified inhibitor in the foregoing vehicle, as listed in Table 1 below.\nFour groups (eight animals in each group) of male intact Golden Syrian hamsters were provided. These animals were considered acceptable models for human beard hair growth in that they display oval shaped flank organs, one on each side, each about 8 mm in major diameter, which grow thick black and coarse hair similar to human beard hair. These organs produce hair in response to androgens in the hamster. The flank organs of each hamster were depilated by applying a thioglycolate-based chemical depilatory (Surgex), and to one organ of each animal was applied 10 μL. of vehicle alone once a day, while to the other organ of each animal was applied an equal amount of vehicle containing inhibitor. After 14 such applications (Mon.-Fri.) over a period of 18 days, the flank organs were shaved and the amount of recovered hair (hair mass) from each was weighed. The extent of reduction in hair growth by the inhibitor was expressed as the percent decrease in hair mass on the organ treated with inhibitor as compared to the organ treated with vehicle alone. As a control, one group of eight animals had both flank organs of each animal treated with vehicle alone.\nThe same procedure was followed as in Example 1 except that the vehicle used for the compositions consisted of water alone.\nThe same test procedure was followed except that the compositions were applied to the hamster flank organs every day for fifteen successive days, at which time hair mass was measured; the results were as follows: […]"}, "[6]": {"test_system": "hamster flank organ", "details": "topical application; cited from earlier work"}, "[7]": {"details": "Table 1, 5% of each inhibitor in water/ethanol/glycol vehicle, 10 μL once a day, 14 applications over 18 days"}, "[8]": {"details": "Table 1, 5% of each inhibitor in water/ethanol/glycol vehicle, 14 applications over 18 days"}, "[9]": {"details": "Table 3, 5% of each inhibitor, Example 1 vehicle, every day for fifteen successive days"}},
  "note": "Read-outs that look alike come from different tables or passages of the source.",
  "data": [
    {"smiles": "C#CC(N)CCCN", "note": "(stereo not shown) [5-hexyne-1,4-diamine]", "values": [
      {"measurement": "brain 4-aminobutyric acid levels", "setting": "[1]", "value": "increases in brain 4-aminobutyric acid levels"}
    ]},
    {"smiles": "CC(=O)[C@H]1CC[C@H]2[C@@H]3CCC4=CC(=O)CC[C@]4(C)[C@H]3CC[C@]12C", "note": "[progesterone]", "values": [
      {"measurement": "reducing sebum excretion rates", "setting": "[2]; females", "value": "effective in reducing sebum excretion rates in females"},
      {"measurement": "reducing sebum excretion rates", "setting": "[2]; males", "value": "without effect in males"},
      {"measurement": "effect on inhibition of hair growth", "setting": "[3]", "value": "doubtful"},
      {"measurement": "effectiveness of progesterone", "setting": "[4]; female", "value": "effective in the female"},
      {"measurement": "effectiveness of progesterone", "setting": "[4]; male", "value": "not in the male"}
    ]},
    {"smiles": "CC(C=NNC(=N)N)=NNC(=N)N", "note": "[MGBG, methylglyoxal bis(guanylhydrazone)]", "values": [
      {"measurement": "Flank Organ Hair Mass, Treated", "setting": "[5]; [7]", "value": "1.54 ± .22 mg"},
      {"measurement": "Hair Growth Inhibition", "setting": "[5]; [8]", "value": "40.3 ± 7.4", "unit": "%"},
      {"measurement": "Hair Growth Inhibition", "setting": "[5]; [9]", "value": "42.3 ± 8.2", "unit": "%"},
      {"measurement": "Flank Organ Hair Mass, Treated", "setting": "[5]; [9]", "value": "0.56 ± .11 mg"}
    ]},
    {"smiles": "CCC[C@]1(O)CC[C@H]2[C@@H]3CCC4=CC(=O)CC[C@]4(C)[C@H]3CC[C@@]21C", "note": "[17β-hydroxy-17α-propylandrost-4-en-3-one]", "values": [
      {"measurement": "reduction in hair growth of the hamster flank organ", "setting": "[6]", "value": "substantial reduction in hair growth"},
      {"measurement": "size of the flank organ", "setting": "[6]", "value": "reduction in the size of the flank organ"}
    ]},
    {"smiles": "NCCC[C@](N)(C(=O)O)C(F)F", "note": "[DFMO, 2-(difluoromethyl)-ornithine]", "values": [
      {"measurement": "Flank Organ Hair Mass, Treated", "setting": "[5]; [7]", "value": "0.99 ± .08 mg"},
      {"measurement": "Hair Growth Inhibition", "setting": "[5]; [8]", "value": "64.3 ± 3.7", "unit": "%"},
      {"measurement": "Flank Organ Hair Mass, Treated", "setting": "[5]; Table 2, 5% inhibitor, vehicle water alone, 14 applications over 18 days", "value": "2.70 ± .22 mg"},
      {"measurement": "Hair Growth Inhibition", "setting": "[5]; Table 2, 5% inhibitor, vehicle water alone", "value": "18.8 ± 3.7", "unit": "%"},
      {"measurement": "Hair Growth Inhibition", "setting": "[5]; [9]", "value": "44.4 ± 18.2", "unit": "%"},
      {"measurement": "Flank Organ Hair Mass, Treated", "setting": "[5]; [9]", "value": "0.49 ± .14 mg"}
    ]},
    {"smiles": "CN(CCON)C[C@H]1O[C@@H](n2cnc3c(N)ncnc32)[C@H](O)[C@@H]1O", "note": "[MAOEA, 5'-deoxy-5'-[N-methyl-N-(2-[aminooxy]ethyl)] aminoadenosine]", "values": [
      {"measurement": "Flank Organ Hair Mass, Treated", "setting": "[5]; [7]", "value": "2.03 ± .18 mg"},
      {"measurement": "Hair Growth Inhibition", "setting": "[5]; [8]", "value": "29.4 ± 5.9", "unit": "%"}
    ]},
    {"smiles": "CCC(=NNC(=N)N)C(CC)=NNC(=N)N", "note": "[DEGBG, diethylglyoxal bis(guanylhydrazone)]", "values": [
      {"measurement": "Flank Organ Hair Mass, Treated", "setting": "[5]; Table 2, 2.5% inhibitor, vehicle water alone, 14 applications over 18 days", "value": "2.62 ± .15 mg"},
      {"measurement": "Hair Growth Inhibition", "setting": "[5]; Table 2, 2.5% inhibitor, vehicle water alone", "value": "15.9 ± 5.2", "unit": "%"}
    ]}
  ]
}
